PMC6390180, “Functionality of membrane proteins overexpressed and purified from E. coli is highly dependent upon the strain” (Scientific Reports, 2019)

Biological target: T1, PatA/PatB (Streptococcus pneumoniae, UniProt Q8DN70+Q8DN72)
T1 construct: gene ABC-NP; full heterodimer co-expressed from pETDuet-1-PatA/PatB in E. coli C41(DE3), BL21(DE3), T7 express or Lemo21(DE3); His-tagged; inverted membrane vesicles, or purified in LMNG / proteoliposomes
Test: fluorescence transport assay, inverted membrane vesicles
Assay type: biochemical
Settings: 1 µM Hoechst 33342, 2 mM GTP, 2 mM MgCl2, pH 8.0, 25 °C; transported drug

T1 sequence (Q8DN70 entry or part of it): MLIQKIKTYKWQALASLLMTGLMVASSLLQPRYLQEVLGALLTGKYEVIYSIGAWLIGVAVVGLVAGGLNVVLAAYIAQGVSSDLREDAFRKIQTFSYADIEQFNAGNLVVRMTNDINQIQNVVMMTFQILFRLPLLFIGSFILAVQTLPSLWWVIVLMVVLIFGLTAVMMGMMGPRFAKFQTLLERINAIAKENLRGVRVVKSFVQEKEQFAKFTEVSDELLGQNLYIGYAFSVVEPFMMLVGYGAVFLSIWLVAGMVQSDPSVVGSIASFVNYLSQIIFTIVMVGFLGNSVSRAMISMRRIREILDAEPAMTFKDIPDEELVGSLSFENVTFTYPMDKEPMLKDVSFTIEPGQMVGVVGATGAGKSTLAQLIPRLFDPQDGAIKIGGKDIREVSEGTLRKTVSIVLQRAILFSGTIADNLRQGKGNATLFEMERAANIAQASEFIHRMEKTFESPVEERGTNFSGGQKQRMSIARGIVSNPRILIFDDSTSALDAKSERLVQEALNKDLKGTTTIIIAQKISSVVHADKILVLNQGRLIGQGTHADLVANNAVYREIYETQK
T1 sequence (Q8DN72 entry or part of it): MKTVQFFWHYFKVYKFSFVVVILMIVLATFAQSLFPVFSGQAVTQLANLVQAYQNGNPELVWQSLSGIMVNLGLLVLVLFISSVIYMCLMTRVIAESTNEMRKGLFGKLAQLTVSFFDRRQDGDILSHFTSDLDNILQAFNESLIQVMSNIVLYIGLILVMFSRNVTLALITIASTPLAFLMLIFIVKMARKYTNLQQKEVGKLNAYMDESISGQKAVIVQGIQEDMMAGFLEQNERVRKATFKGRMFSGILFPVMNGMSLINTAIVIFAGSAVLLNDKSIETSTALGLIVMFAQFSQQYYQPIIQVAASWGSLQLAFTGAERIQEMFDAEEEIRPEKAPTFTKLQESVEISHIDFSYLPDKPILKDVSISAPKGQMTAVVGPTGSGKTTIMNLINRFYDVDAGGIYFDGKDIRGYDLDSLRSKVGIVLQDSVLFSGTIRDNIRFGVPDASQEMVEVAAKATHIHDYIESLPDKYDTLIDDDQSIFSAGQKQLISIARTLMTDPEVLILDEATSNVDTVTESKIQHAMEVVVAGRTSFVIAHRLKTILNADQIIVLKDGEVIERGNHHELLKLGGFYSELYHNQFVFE

In the case of `CCOc1ccc(-c2nc3ccc(-c4nc5ccc(N6CCN(C)CC6)cc5[nH]4)cc3[nH]2)cc1` [Hoechst 33342, 2-(4-ethoxyphenyl)-5-(4-methyl-1-piperazinyl)-2,5-bis-1H-benzimidazole], the “fluorescence transport assay, inverted membrane vesicles” value is reported as “a fluorescent drug translocated by PatA/PatB”.
